Measurements reported in PMC7888557 (International journal of biological macromolecules, 2017).

Biological target: T1, S-adenosyl-L-homocysteine hydrolase from T. maritima (TmSAHase; iTmSAHase as purified, htTmSAHase after heat treatment) (Thermotoga maritima, UniProt O51933)
T1 sequence (O51933 1-404): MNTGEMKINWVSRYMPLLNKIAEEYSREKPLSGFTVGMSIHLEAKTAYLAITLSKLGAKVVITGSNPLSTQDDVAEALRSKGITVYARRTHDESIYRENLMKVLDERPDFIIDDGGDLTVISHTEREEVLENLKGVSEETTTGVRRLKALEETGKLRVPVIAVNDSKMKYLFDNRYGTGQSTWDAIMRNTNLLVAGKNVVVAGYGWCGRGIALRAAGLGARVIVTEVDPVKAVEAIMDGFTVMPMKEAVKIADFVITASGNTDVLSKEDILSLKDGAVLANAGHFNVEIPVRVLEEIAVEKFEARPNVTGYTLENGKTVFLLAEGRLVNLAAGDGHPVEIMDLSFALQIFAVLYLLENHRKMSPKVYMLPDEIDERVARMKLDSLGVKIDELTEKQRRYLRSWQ
Assay: isothermal titration calorimetry
Format: binding

Compound	Kd (htTmSAHase/Ado)	Kd (iTmSAHase/Ado)	Kd (htTmSAHase/AMP)	Kd (iTmSAHase/AMP)
Nc1ncnc2c1ncn2[C@@H]1O[C@H](CO)[C@@H](O)[C@H]1O [Ado, adenosine]	8.8 ± 1.2 µM	19 ± 1.5 µM		
Nc1ncnc2c1ncn2[C@@H]1O[C@H](COP(=O)(O)O)[C@@H](O)[C@H]1O [AMP, adenosine 5′-monophosphate]			25 ± 2 µM	30 ± 3 µM
